# Measured values from patent US4826856A, “Calcium antagonistic dihydropyridine derivative” (Yason s.r.l., priority 1985, dated 1989).
# Where two headings read alike, the source gives them in different places.
# How the values were obtained:
# [1] = system: volunteers; assay: Clinical tolerance of oral treatment in volunteers; type: in vivo, human
# Experimental: The study was performed in 4 male subjects aged 26-43 years.
# Each volunteer received one capsule of 20 mg of YS 201 with a glass of water.
# The same four volunteers, after the first administration were treated with increasing doses of YS 201: 30-40-50 mg.
# [2] = system: Sprague-Dawley rats; assay: Ventricular arrhythmias during coronary artery ligation period; type: in vivo, rat; set-up: EBs, mean value of indices + SEM / VT, mean value of indices + SEM / VF, mean value of indices + SEM: scale not given here
# Experimental: Ventricular arrhythmias after coronary artery ligation in the acute phase or during the period of re-circulation
# Sprague-Dawley rats were subjected to ligation of the left coronary artery according to the method of Clark et al. in J. Pharmacol. Methods 3, 357-368, 1980. The drugs were administered by gastric tube 30 minutes before the ligation. By means of a continuous electrocardiographic recording, the ventricular arrhythmias such as ectopic beats (EB), ventricular tachycardia (VT), ventricular fibrillation (VF) for 30 minutes after ligation, were recorded.
# [3] = system: post-oligoemic rats; assay: Transient cerebral oligoemia in the rat, cerebral water, K+ and Ca++ content; type: in vivo
# Experimental: Transient cerebral oligoemia in the rat
# The method described by Borzeix in Circulation et Metabolisme du Cerveau 1, 63-79, John Libbey Eurotext Publ. […] The animals were treated by the oral route with the tested drugs twice a day, starting one hour after the ligation and for 3 days, in scalar doses.
# The last dose, at the 71th hour after the occlusion, preceeded by one hour the sacrifice of the animal, whose brain was subjected to the determination of the H2 O, K^+ and Ca^++ content.
# [4] = Bioavailability after oral administration in normal volunteers; type: in vivo, human; set-up: AUC: concentration or dose not given beside the values; details: for Tmax / Cmax / half-life / AUC: human, plasma, po; for Tmax / Cmax: oral 20 mg
# Experimental: The study was performed in 4 male subjects aged 26-43 years. Pharmacokinetic studies were performed both after acute and repeated administrations. Acute administration […] Further venous blood samples were withdrawn 15-30 minutes and 1.0-1.5-2.0-4.0-6.0-8.0 hours after treatment. Multiple-doses administration […] Blood samples were withdrawn 2-4-8-12 hours after the last treatment.
smiles,measurement,setting,value
"CCOC(=O)C1=C(C)NC(C)=C(C(=O)OCCN2CCCCC2)C1c1cccc([N+](=O)[O-])c1 (stereo not drawn) [YS 201, ethyl-(β-piperidinoethyl)-2,6-dimethyl-4-(3-nitrophenyl)-1,4-dihydropyridine-3,5-dicarboxylate]",atrio-ventricular conduction time (PR interval),"[1]; subject n. 1, delayed from 0.14 sec.",0.16 s
same,atrio-ventricular conduction time (PR interval),"[1]; subject n. 2, delayed from 0.16 sec.",0.18 s
same,"atrio-ventricular conduction time (PR interval), change","[1]; two subjects (n. 1, 2)",slightly prolonged
same,Death rate %,[2]; 0.75 mg/kg p.o.,20%
same,"EBs, mean value of indices + SEM",[2]; 0.75 mg/kg p.o.,42.1 ± 9.70
same,VF %,[2]; 0.75 mg/kg p.o.,60%
same,"VF, mean value of indices + SEM",[2]; 0.75 mg/kg p.o.,3.8 ± 1.77
same,"VT, mean value of indices + SEM",[2]; 0.75 mg/kg p.o.,1.3 ± 0.68
same,Death rate %,[2]; 1.5 mg/kg p.o.,0%
same,"EBs, mean value of indices + SEM",[2]; 1.5 mg/kg p.o.,45.7 ± 6.18
same,VF %,[2]; 1.5 mg/kg p.o.,20%
same,"VF, mean value of indices + SEM",[2]; 1.5 mg/kg p.o.,0.5 ± 0.49
same,"VT, mean value of indices + SEM",[2]; 1.5 mg/kg p.o.,1.9 ± 0.32
same,Death rate %,[2]; 3.0 mg/kg p.o.,80%
same,"EBs, mean value of indices + SEM",[2]; 3.0 mg/kg p.o.,36.0 ± 9.11
same,VF %,[2]; 3.0 mg/kg p.o.,100%
same,"VF, mean value of indices + SEM",[2]; 3.0 mg/kg p.o.,4.8 ± 1.41
same,"VT, mean value of indices + SEM",[2]; 3.0 mg/kg p.o.,1.6 ± 0.77
same,reduction of the index attributed to EBs and VT,[2]; whatever the dosage,~2 fold
same,Cerebral content of H2O,[3]; 0.25 mg/kg p.o.,79.2 ± 0.57%
same,Cerebral content of Ca++,[3]; 0.5 mg/kg p.o.,11.7 ± 3.00 mmol · kg^-1 dry weig
same,Cerebral content of H2O,[3]; 0.5 mg/kg p.o.,78.3 ± 0.39%
same,Cerebral content of Ca++,[3]; 1 mg/kg p.o.,11.7 ± 5.53 mmol · kg^-1 dry weig
same,Cerebral content of H2O,[3]; 1 mg/kg p.o.,77.8 ± 0.47%
same,Cerebral content of Ca++,[3]; 3 mg/kg p.o.,12.6 ± 3.89 mmol · kg^-1 dry weig
same,Cerebral content of H2O,[3]; 3 mg/kg p.o.,78.8 ± 0.44%
same,decline of plasma profile (compartment analysis),[4]; acute and repeated administration,declines in one phase
same,unchanged drug in plasma,"[4]; after six hours, acute",still present in the plasma
same,Tmax,"[4]; 20 mg, acute study, read-out: average T max (converted)",1.5 h
same,Cmax,"[4]; 20 mg, acute study, ±2.65 S.E., read-out: mean peak plasma level",57.2 ng/mL
same,half-life,"[4]; 20 mg, after acute administration, mean of 4 volunteers, read-out: T1/2 el. (converted)",1.88 h
same,half-life,"[4]; 20 mg, after acute administration, volunteer 1, read-out: T1/2 el. (converted)",1.99 h
same,half-life,"[4]; 20 mg, after acute administration, volunteer 2, read-out: T1/2 el. (converted)",1.05 h
same,half-life,"[4]; 20 mg, after acute administration, volunteer 3, read-out: T1/2 el. (converted)",1.8 h
same,half-life,"[4]; 20 mg, after acute administration, volunteer 4, read-out: T1/2 el. (converted)",2.66 h
same,half-life,"[4]; 20 mg, after acute administration, ±0.65 S.D., read-out: mean T1/2 el. / terminal half life (converted)",1.8 h
same,Cmax,"[4]; 20 mg, mean of 4 volunteers, read-out: C max",64.8 ng/mL
same,Tmax,"[4]; 20 mg, mean of 4 volunteers, read-out: T max",1.5 h
same,Cmax,"[4]; 20 mg, volunteer 1, read-out: C max",56 ng/mL
same,Tmax,"[4]; 20 mg, volunteer 1, read-out: T max",1.5 h
same,Cmax,"[4]; 20 mg, volunteer 2, read-out: C max",55 ng/mL
same,Tmax,"[4]; 20 mg, volunteer 2, read-out: T max",1.5 h
same,Cmax,"[4]; 20 mg, volunteer 3, read-out: C max",65 ng/mL
same,Tmax,"[4]; 20 mg, volunteer 3, read-out: T max",2 h
same,Cmax,"[4]; 20 mg, volunteer 4, read-out: C max",83 ng/mL
same,Tmax,"[4]; 20 mg, volunteer 4, read-out: T max",1 h
same,half-life,"[4]; after multiple-doses administration, mean of 4 volunteers, read-out: T1/2 el. (converted)",4.29 h
same,half-life,"[4]; after multiple-doses administration, volunteer 1, read-out: T1/2 el. (converted)",4.11 h
same,half-life,"[4]; after multiple-doses administration, volunteer 2, read-out: T1/2 el. (converted)",4.44 h
same,half-life,"[4]; after multiple-doses administration, volunteer 3, read-out: T1/2 el. (converted)",4.12 h
same,half-life,"[4]; after multiple-doses administration, volunteer 4, read-out: T1/2 el. (converted)",4.49 h
same,half-life,"[4]; after repeated administration, read-out: mean terminal half life (converted)",4.29 h
same,AUC,[4]; mean of 4 volunteers,252 ng·h/mL
same,AUC,[4]; volunteer 1,219 ng·h/mL
same,AUC,[4]; volunteer 2,181 ng·h/mL
same,AUC,[4]; volunteer 3,269 ng·h/mL
same,AUC,[4]; volunteer 4,388 ng·h/mL
same,plasma level relative to peak,"[4]; multiple dose, four hours after administration",reduced to the half
same,plasma level of unchanged drug vs acute treatment at same time,"[4]; multiple dose, two hours after last treatment",three times upper
same,unchanged drug in plasma,"[4]; twelve hours after treatment, multiple dose",still present in the plasma
